# Test results as given in patent publication US10053431B2, “Tetrahydro-benzodiazepinones” (priority 2013, dated 2018).
# Where a name gives a salt, the structure may show the parent alone. Read-outs that look alike come from different tables or passages of the source.
# What was measured:
# BIR3 domain of XIAP = BIR3 domain of XIAP (Homo sapiens (Human), UniProt P98170); assay: TR-FRET assay for BIR3 (inhibition of binding of XIAP BIR3 domain to SMAC-derived Peptide A)
# BIR2 domain of XIAP = BIR2 domain of XIAP (Homo sapiens (Human), UniProt P98170, C202A/C213G); assay: TR-FRET assay for BIR2 (inhibition of binding of XIAP BIR2 domain to SMAC-derived Peptide A); details: 6x His-tagged BIR2 domain (aa 124-240 of XIAP) 10 nM, Peptide A 20 nM, TR-FRET; read-out: IC50 BIR2
# [1] = 6x His-tagged BIR3 domain (aa 241-356 of XIAP) 10 nM, Peptide A 20 nM, TR-FRET
# Chain of BIR2 domain of XIAP (P98170 124-240 with tags or gaps C202A/C213G limits assumed): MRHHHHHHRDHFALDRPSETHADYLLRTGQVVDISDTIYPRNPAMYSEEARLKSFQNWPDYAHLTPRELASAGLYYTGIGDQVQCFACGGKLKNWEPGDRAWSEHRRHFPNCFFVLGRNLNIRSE
# Chain of BIR3 domain of XIAP (P98170 241-356 with tags or gaps limits assumed): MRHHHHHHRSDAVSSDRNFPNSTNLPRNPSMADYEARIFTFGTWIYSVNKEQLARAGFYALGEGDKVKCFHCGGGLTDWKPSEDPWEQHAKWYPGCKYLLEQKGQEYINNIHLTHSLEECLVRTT
SMILES,IC50 (BIR3 domain of XIAP; [1]),IC50 (BIR2 domain of XIAP),IC50 (BIR3 domain of XIAP)
"CN[C@@H](C)C(=O)N[C@H]1CN(C(=O)c2ccccc2[C@H](C)O)c2ccccc2N(Cc2c(C)ccc3ccccc23)C1=O (stereo in doubt) [Example 148, (2S)-N-[(3S)-1-[2-[(1S)-1-hydroxyethyl]benzoyl]-5-[(2-methylnaphthalen-1-yl)methyl]-4-oxo-2,3-dihydro-1,5-benzodiazepin-3-yl]-2-(methylamino)propanamide;(2S)-N-[(3S)-1-[2-[(1R)-1-hydroxyethyl]benzoyl]-5-[(2-methylnaphthalen-1-yl)methyl]-4-oxo-2,3-dihydro-1,5-benzodiazepin-3-yl]-2-(methylamino)propanamide]",> 54800 nM,40.1 nM,–
"CN[C@@H](C)C(=O)N[C@H]1CN(C(=O)Cc2ccccc2)c2ccccc2N(Cc2cccc3ccccc23)C1=O [Example 4, (S)-2-Methylamino-N—((S)-1-naphthalen-1-ylmethyl-2-oxo-5-phenylacetyl-2,3,4,5-tetrahydro-1H-benzo[b][1,4]diazepin-3-yl)-propionamide hydrochloride]",> 54000 nM,409 nM,–
"CN[C@@H](C)C(=O)N[C@H]1CN(C(=O)c2ccncc2)c2ccccc2N(Cc2c(C)ccc3ccccc23)C1=O [Example 9, (S)-2-Methylamino-N—[(S)-1-(2-methyl-naphthalen-1-naphthalen-1 ylmethyl)-2-oxo-5-(pyridine-4-carbonyl)-2,3,4,5-tetrahydro-1H-benzo[b][1,4]diazepin-3-yl]-propionamide hydrochloride]",> 54800 nM,520 nM,–
"CN[C@@H](C)C(=O)N[C@H]1CN(C(=O)COCCOC)c2ccccc2N(Cc2c(C)ccc3ccccc23)C1=O [Example 10, (S)—N—[(S)-5-[2-(2-methoxy-ethoxy)-acetyl]-1-(2-methyl-naphthalen-1-ylmethyl)-2-oxo-2,3,4,5-tetrahydro-1H-benzo[b][1,4]diazepin-3-yl]-2-methylamino-propionamide hydrochloride]",> 54800 nM,364 nM,–
"CN[C@@H](C)C(=O)N[C@H]1CN(C(=O)CC(N)=O)c2ccccc2N(Cc2c(C)ccc3ccccc23)C1=O [Example 11, (S)—N—[(S)-5-(2-Carbamoyl-acetyl)-1-(2-methyl-naphthalen-1-ylmethyl)-2-oxo-2,3,4,5-tetrahydro-1H-benzo[b][1,4]diazepin-3-yl]-2-methylamino-propionamide hydrochloride]",> 54800 nM,426 nM,–
"CN[C@@H](C)C(=O)N[C@H]1CN(C(=O)CN2CCN(C)CC2)c2ccccc2N(Cc2c(C)ccc3ccccc23)C1=O [Example 12, (S)-2-methylamino-N—{(S)-1(2-methyl-naphthalen-1-ylmethyl)-5-[2-(4-methyl-piperazin-1-yl)-acetyl]-2-oxo-2,3,4,5-tetrahydro-1H-benzo[b][1,4]diazepin-3-yl}-propionamide hydrochloride]",> 54800 nM,820 nM,–
CN[C@@H](C)C(=O)N[C@H]1CN(C(=O)c2ccc(S(C)(=O)=O)cc2)c2ccccc2N(Cc2c(C)ccc3ccccc23)C1=O [Example 13c],> 54800 nM,119 nM,–
CN[C@@H](C)C(=O)N[C@H]1CN(C(=O)CCCCC(=O)OC)c2ccccc2N(Cc2c(C)ccc3ccccc23)C1=O [Example 13e],> 54800 nM,308 nM,–
CN[C@@H](C)C(=O)N[C@H]1CN(C(=O)c2ccc(C(C)=O)cc2)c2ccccc2N(Cc2c(C)ccc3ccccc23)C1=O [Example 13f],> 54800 nM,54 nM,–
CN[C@@H](C)C(=O)N[C@H]1CN(C(=O)c2cc(OC)c(OC)c(OC)c2)c2ccccc2N(Cc2c(C)ccc3ccccc23)C1=O [Example 13g],> 54800 nM,481 nM,–
CN[C@@H](C)C(=O)N[C@H]1CN(C(=O)CCNC(=O)OCC2c3ccccc3-c3ccccc32)c2ccccc2N(Cc2c(OC)ccc3cc(C(=O)OC)ccc23)C1=O [Example 13r],46700 nM,17 nM,–
"CN[C@@H](C)C(=O)N[C@H]1CN(C(=O)CCC(=O)O)c2ccccc2N(Cc2c(C)ccc3ccccc23)C1=O [Example 16, 4-[(S)-3-((S)-2-Methylamino-propionylamino)-5-(2-methyl-naphthalen-1-ylmethyl)-4-oxo-2,3,4,5-tetrahydro-benzo[b][1,4]diazepin-1-yl]-4-oxo-butyric acid hydrochloride]",> 54800 nM,126 nM,–
"CNC(=O)N1C[C@H](NC(=O)[C@H](C)NC)C(=O)N(Cc2c(C)ccc3ccccc23)c2ccccc21 [Example 17, (S)-3-((S)-2-Methylamino-propionylamino)-5-(2-methyl-naphthalen-1-ylmethyl)-4-oxo-2,3,4,5-tetrahydro-benzo[b][1,4]diazepine-1-carboxylic acid methylamide hydrochloride]",–,1430 nM,> 54800 nM
"CN[C@@H](C)C(=O)N[C@H]1CN(S(=O)(=O)CS(C)(=O)=O)c2ccccc2N(Cc2c(C)ccc3ccccc23)C1=O [Example 18, (S)—N—[(S)-5-Methanesulfonylmethanesulfonyl-1-(2-methyl-naphthalen-1-ylmethyl)-2-oxo-2,3,4,5-tetrahydro-1H-benzo[b][1,4]diazepin-3-yl]-2-methylamino-propionamide trifluoroacetate]",> 54800 nM,590 nM,–
"CN[C@@H](C)C(=O)N[C@H]1CN(S(C)(=O)=O)c2ccccc2N(Cc2c(C)ccc3ccccc23)C1=O [Example 19, (S)—N—[(S)-5-methanesulfonyl-1-(2-methyl-naphthalen-1-ylmethyl)-2-oxo-2,3,4,5-tetrahydro-1H-benzo[b][1,4]diazepin-3-yl]-2-methylamino-propionamide hydrochloride]",> 54800 nM,620 nM,–
"CN[C@@H](C)C(=O)N[C@H]1CN(C(=O)OC)c2ccccc2N(Cc2c(C)ccc3ccccc23)C1=O [Example 20, ((S)-3-((S)-2-Methylamino-propionylamino)-5-(2-methyl-naphthalen-1-ylmethyl)-4-oxo-2,3,4,5-tetrahydro-benzo[b][1,4]diazepine-1-carboxylic acid methyl ester hydrochloride]",> 54800 nM,588 nM,–
"CN[C@@H](C)C(=O)N[C@H]1CN(C(=O)c2ccc(C(C)=O)cc2)c2ccccc2N(CCc2cccc3ccccc23)C1=O [Example 40, (S)—N—((S)-5-(4-acetylbenzoyl)-1-(2-(naphthalen-1-yl)ethyl)-2-oxo-2,3,4,5-tetrahydro-1H-benzo[b][1,4]diazepin-3-yl)-2-(methylamino)propanamide]",7420 nM,173 nM,–
"CN[C@@H](C)C(=O)N[C@H]1CN(C(=O)c2ccc(NC(C)=O)cc2)c2ccccc2N(Cc2c(OC)ccc3ccccc23)C1=O [Example 42, (S)—N—[(S)-5-(4-Acetylamino-benzoyl)-1-(2-methoxy-naphthalen-1-ylmethyl)-2-oxo-2,3,4,5-tetrahydro-1H-benzo[b][1,4]diazepin-3-yl]-2-methylamino-propionamide hydrochloride]",> 54800 nM,37 nM,–
"CN[C@@H](C)C(=O)N[C@H]1CN(C(=O)c2ccc(C(C)=O)cc2)c2ccccc2N(Cc2c(OC)ccc3cc(C(=O)OC)ccc23)C1=O [Example 43, 5-[(S)-5-(4-Acetyl-benzoyl)-3-((S)-2-methylamino-propionylamino)-2-oxo-2,3,4,5-tetrahydro-benzo[b][1,4]diazepin-1-ylmethyl]-6-methoxy-naphthalen-2-carboxylic acid methyl ester hydrochloride]",44100 nM,57 nM,–
"CN[C@@H](C)C(=O)N[C@H]1CN(C(=O)c2ccc(C(C)=O)cc2)c2ccccc2N(Cc2c(OC)ccc3cc(C(=O)O)ccc23)C1=O [Example 44, 5-[[(3S)-1-(4-acetylbenzoyl)-3-[[(2S)-2-(methylamino)propanoyl]amino]-4-oxo-2,3-dihydro-1,5-benzodiazepin-5-yl]methyl]-6-methoxy-naphthalene-2-carboxylic acid; hydrochloride]",17400 nM,16 nM,–
"CN[C@@H](C)C(=O)N[C@H]1CN(C(=O)CCCC(C)=O)c2ccccc2N(Cc2c(OC)ccc3cc(C(=O)O)ccc23)C1=O [Example 47, 6-Methoxy-5-[(S)-3 ((S)-2-methylamino-propionylamino)-2-oxo-5-(5-oxo-hexanoyl)-2,3,4,5-tetrahydro-benzo[b][1,4]diazepin-1-ylmethyl]-naphthalene-2-carboxylic acid hydrochloride]",44600 nM,20 nM,–
"CN[C@@H](C)C(=O)N[C@H]1CN(C(=O)CCCNC(=O)OCC2c3ccccc3-c3ccccc32)c2ccccc2N(Cc2c(OC)ccc3cc(C(=O)OC)ccc23)C1=O [Example 48, 5-[(S)-5-[4-(9H-Fluoren-9-ylmethoxycarbonylamino)-butyryl]-3-((S)-2-methylamino-propionylamino)-2-oxo-2,3,4,5-tetrahydro-benzo[b][1,4]diazepin-1-ylmethyl]-6-methoxy-naphthalene-2-carboxylic acid methyl ester hydrochloride]",33200 nM,23 nM,–
"CN[C@@H](C)C(=O)N[C@H]1CN(C(=O)CCCN)c2ccccc2N(Cc2c(OC)ccc3cc(C(=O)OC)ccc23)C1=O [Example 49, 5-[(S)-5-(4-Amino-butyryl)-3-((S)-2-methylamino-propionylamino)-2-oxo-2,3,4,5-tetrahydro-benzo[b][1,4]diazepin-1-ylmethyl]-6-methoxy-naphthalene-2-carboxylic acid methyl ester hydrochloride]",> 54800 nM,127 nM,–
"CN[C@@H](C)C(=O)N[C@H]1CN2C(=O)CCCNC(=O)c3ccc4c(c(OC)ccc4c3)CN(C1=O)c1ccccc12 [Example 51, Cyclic-5-[(S)-5-(4-Amino-butyryl)-3-((S)-2-methylamino-propionylamino)-2-oxo-2,3,4,5-tetrahydro-benzo[b][1,4]diazepin-1-ylmethyl]-6-methoxy-naphthalene-2-carboxylic amide hydrochloride]",42800 nM,58 nM,–
